Entries after “also recorded” stand apart in the source; their conditions may differ. Read-outs that look alike come from different tables or passages of the source.
Assays:
[1] = Effect of UVA irradiation on the absorbance spectrum of DOX (350-600 nm; KDOX at 480 nm); assay type: physicochemical; conditions: for photoenhancing effect on riboflavin-mediated UVA destruction of DOX (absorbance at 480 nm): 100 μM compound, 0.5 μM riboflavin in PBS without Ca2+ and Mg2+, 0 to 20 minutes UVA
P388 cells = experiment: In vitro cell culture assay: growth inhibitory effect of UVA-irradiated DOX solutions; assay type: cell-based, murine
Method: Cell culture was carried out as previously described (Ramu et al. [1984] Cancer Res., 44:144). Briefly, P388 murine leukemia cells (i.e., P388D1 available from the ATCC; […] An inoculum of cells was transferred to fresh medium once every 4 days to maintain exponential growth. […] Drug solutions (0.2 ml/well) in 24 well culture clusters without the lid were irradiated in a laminar flow hood with 3 Blacklight Blue 40 W lamps (Vilber Lourmat, Marne la Vallee, France).

[2] = Half-life of ADR destruction by UVA light in the presence of test compounds (decrease in absorbance at 480 nm); assay type: physicochemical; conditions: for Half-Life of ADR Destruction, 100 μM Test Compound: 100 μM test compound alone
[3] = tested on: P388 cells and P388/ADR cells; experiment: Catalase protection of cells from UVA irradiation; assay type: cell-based, murine; conditions: 0.01 to 100 U/ml catalase in PBS or RPMI 1640
[4] = tested on: P388 or P388/ADR cell lines; experiment: Effect of catalase on the growth inhibitory effect of DOX; assay type: cell-based, murine; conditions: 30 U/ml catalase
[5] = UVA light, 100 μM test compound with 0.5 μM riboflavin

Molecule | Half-Life of ADR Destruction, 100 μM Test Compound and 0.5 μM Riboflavin [2, 5] | Half-Life of ADR Destruction, 100 μM Test Compound ([2]; UVA light) | other results
N[C@@H](Cc1ccc(O)cc1)C(=O)O [4-Hydroxy Phenylalanine (Tyrosine), 4-Hydroxy Phenylalanine] |  |  | photoenhancing effect on riboflavin-mediated UVA destruction of DOX (absorbance at 480 nm) ([1]; 20 μM DOX): enhanced; also recorded: greatest photenhancing effect; effect on the absorbance spectrum of DOX under UVA without riboflavin ([1]; 100 μM tyrosine, 20 μM DOX in PBS pH 7.2): essentially no impact on the absorbance spectrum of DOX
COc1cccc2c1C(=O)c1c(O)c3c(c(O)c1C2=O)C[C@@](O)(C(=O)CO)C[C@@H]3O[C@H]1C[C@H](N)[C@H](O)[C@H](C)O1.Cl [DOX, Doxorubicin HCl, reference compound] |  |  | first order rate constant of the decrease in DOX absorbance (KDOX) ([1]; 20 μM DOX in RPMI medium 1640 without phenol red, 50 mM HEPES pH 7.2, UVA): 0.000417 s⁻¹; UVA irradiation required to destroy the DOX absorbance spectrum ([1]; 20 μM DOX, 2 μM riboflavin and 5 nM DABCO (FIG. 12)): 20 min; UVA irradiation required to eliminate the DOX absorbance spectrum ([1]; 20 μM DOX, 20 μM riboflavin, 5 mM DABCO in PBS (FIG. 13B)): less than 2 minutes; time in which the DOX absorbance spectrum disappeared ([1]; 20 μM DOX, 20 μM riboflavin, 5 mM DABCO, PBS without Ca2+ and Mg2+ (FIG. 13C)): less than 1 minute
O=C(O)CN(CCN(CC(=O)O)CC(=O)O)CC(=O)O [EDTA, ethylenediaminetetraacetic acid] |  |  | photoenhancing effect on riboflavin-mediated UVA destruction of DOX (absorbance at 480 nm) ([1]; 20 μM DOX): enhanced
Cc1cc2nc3c(=O)[nH]c(=O)nc-3n(C[C@H](O)[C@H](O)[C@H](O)COP(=O)(O)OP(=O)(O)OC[C@H]3O[C@@H](n4cnc5c(N)ncnc54)[C@H](O)[C@@H]3O)c2cc1C [FAD, flavin adenine dinucleotide] |  |  | raise of concentration needed to obtain an effect comparable to riboflavin or FMN (P388 cells; UVA effect on DOX): 5 fold; effectiveness in mediating the UVA inactivation of DOX compared with riboflavin ([1]; in the presence or absence of DABCO): not as effective as riboflavin
Cc1cc2nc3c(=O)[nH]c(=O)nc-3n(C[C@H](O)[C@H](O)[C@H](O)COP(=O)(O)O)c2cc1C [FMN, flavin mononucleotide] |  |  | effectiveness relative to FAD in mediating UVA obliteration of the DOX growth inhibitory effect (P388 cells; 0.3 μM DOX in PBS, 8 min UVA): 5 fold
O=S(=O)(O)CCN1CCN(CCO)CC1 [HEPES, N-2-hydroxyethylpiperazine-N′-2-ethanesulfonic acid] |  |  | effect on riboflavin-mediated photoinactivation of DOX ([1]; 5 mM HEPES, 20 μM DOX, riboflavin in PBS): accelerate the riboflavin-mediated photoinactivation of DOX
N[C@@H](Cc1c[nH]cn1)C(=O)O [Histidine] | 55.2 ± 7.1 min |  | photoenhancing effect on riboflavin-mediated UVA destruction of DOX (absorbance at 480 nm) ([1]; 20 μM DOX): enhanced
CSCC[C@H](N)C(=O)O [Methionine] |  |  | photoenhancing effect on riboflavin-mediated UVA destruction of DOX (absorbance at 480 nm) ([1]; 20 μM DOX): enhanced
N[C@@H](Cc1ccccc1)C(=O)O [Phenylalanine] | 75.3 min |  | photoenhancing effect on riboflavin-mediated UVA destruction of DOX (absorbance at 480 nm) ([1]; 20 μM DOX): did not enhance
O=C(O)c1ccc[nH]1 [Pyrrole-2-carboxylic acid] | 23.2 min |  | 
c1cc[nH]c1 [Pyrrole] |  |  | Half-Life of ADR Destruction, 100 μM Test Compound and 0.5 μM Riboflavin [2]: 11.6 min
C1CCNC1 [Pyrrolidine] | 50.2 min |  | 
c1ccc2sccc2c1 [Thianaphthalene] | 50.2 min |  | 
O=C(O)Cc1ccsc1 [Thiophene-3-acetic acid] | 33.5 min | 43.0 min | 
OCCc1ccsc1 [Thiophene-3-ethanol] | 50.2 min |  | 
O=C(O)C(C(=O)O)c1ccsc1 [Thiophene-3-malonic acid] | 43.0 min |  | 
CC(C(=O)O)c1ccc(C(=O)c2ccccc2)s1 (stereo not shown) [Tiaprofenic Acid, 2-Benzoyl-5-(x-methyl)-thiopheneacetic acid, reference compound] | 3.24 min | 3.20 min | 
COC(=O)[C@@H](N)Cc1ccc(O)cc1 [Tyrosine Methyl Ester] | 43.0 min |  | 

Molecule | Half-Life of ADR Destruction, 100 μM Test Compound and 0.5 μM Riboflavin [2, 5] | Half-Life of ADR Destruction, 100 μM Test Compound ([2]; UVA light) | other results
O=c1cc[nH]c(=O)[nH]1 [Uracil] | 50.2 min |  | 
O=c1[nH]c(=O)c2[nH]c(=O)[nH]c2[nH]1 [Uric acid] | 21.5 min |  | 
O=c1[nH]c(=O)c2[nH]cnc2[nH]1 [Xanthine] | 16.7 min | 50.2 min | 
O=c1c2ccccc2oc2ccccc12 [Xanthrone] | 6.84 min | 5.47 min | 
Cc1cc(CC(=O)O)n(C)c1C(=O)c1ccc(Cl)cc1 [Zomepirac, 5-(4-Chlorobenzoyl)-1,4-dimethyl-pyrrole-2-acetic acid, reference compound] | 20.1 min | 42.0 min | Half-Life of ADR Destruction, 100 μM Test Compound ([2]; UVA light, listed as 5-(4-Chlorobenzoyl)-1,4-dimethyl-pyrrole-2-acetic acid (Zomepirac)): 43.0 min
O=C1O[C@H]([C@@H](O)CO)C(O)=C1O [ascorbate, ascorbic acid] |  |  | effect on the UVA-induced decrease of DOX absorbance ([1]; 0.16 mM ascorbate, 20 μM DOX in RPMI medium 1640): this decrease was smaller; effect on the UVA-induced decrease of DOX absorbance ([1]; 1.6 mM ascorbate, 20 μM DOX in RPMI medium 1640, 20 minutes of irradiation): no changes in the absorbance spectrum of DOX
Nc1ccc(C(=O)NCC(=O)O)cc1 [p-Amino hippuric acid] | 11.1 min | 50.2 min | 
O=C(O)/C=C/c1c[nH]c2ccccc12 [trans-3-Indoleacrylic acid] | 6.84 min |  | 
O=C(O)/C=C/c1ccccc1 [trans-Cinnamic Acid] |  | 43.0 min | 
NC(Cc1c[nH]c2ccccc12)C(=O)O (stereo not drawn) [α-Amino-Indole-3-propionic acid] |  |  | photoenhancing effect on riboflavin-mediated UVA destruction of DOX (absorbance at 480 nm) ([1]; 20 μM DOX): enhanced; effect on destruction of DOX in a riboflavin formulation by UVA irradiation ([1]; 100 μM tryptophan, 20 μM DOX, 0.5 μM riboflavin in PBS): enhanced
CC(O)c1ccc2ccccc2c1 (stereo not drawn) [α-Methyl-2-naphthalenemethanol] | 33.5 min | 43.0 min | 
CC(C(=O)O)c1ccccc1 (stereo not drawn) [α-Methyl-Phenylacetic Acid] | 50.2 min |  | 
O=C(O)CCC(=O)c1cccc2ccccc12 [γ-Oxo-1-napthalenebutyric acid] | 8.60 min | 10.0 min | 
O=C(O)CCC(=O)c1ccc2ccccc2c1 [γ-Oxo-2-naphthalenebutyric acid] | 8.18 min | 8.36 min | 
Coumaryl Glucose | 33.5 min | 43.0 min | 
Dimethyl-2,3-indolecarboxylic acid | 12.0 min |  | 
catalase |  |  | effect on the rate of destruction of DOX by UVA irradiation ([1]; 150 units/ml catalase, 20 μM DOX in RPMI medium 1640): did not affect the rate of destruction of DOX; protection of cells from damage (inhibition of growth) by protracted UVA irradiation [3]: protected the cells from damage; interference with the growth inhibitory effect of DOX [4]: does not interfere with the growth inhibitory effect of DOX
superoxide dismutase |  |  | effect on DOX inactivation by riboflavin or riboflavin-tyrosine and UVA ([1]; 300 U/ml SOD, 20 μM DOX in PBS): accelerates the rate at which DOX is inactivated
